According to patent US11369665B2, “Anti-inflammatory peptides and composition comprising the same” (GemVax & KAEL Co., Ltd., priority 2012, dated 2022):

Tests used:
IL-6 = IL-6 secretion measurement by ELISA in LPS-challenged RAW 264.7 cells; assay type: cell-based
Protocol: (§1) Raw 264.7 macrophage cell (KCBL, 40071) from Korea Cell Bank was maintained in Dulbecco's modified Eagle's medium (DMEM; PAA, Austria) containing 10% fetal bovine serum (FBS; GIBCO®), 100 unit/mL of streptomycin, and penicillin (Gibco Laboratories) at 37° C. with 5% CO2. Raw 264.7 cells were seeded into a 96-well plate at a density of 1×10^6 cells/mL and incubated overnight.
(§2) On the following day, the medium was replaced with fresh medium and 5 μg/mL of peptide (obtained as described in Experiment example 1) was added to the cells. After 30 min incubation of cells with the peptide 50 μL of LPS (to a final concentration of 1 μg/mL) was added, and cells were incubated for additional 24 hr. The experimental sample with the induction of inflammatory response was treated with 1 μg/mL mL lipopolysaccharide (LPS; SIGMA-ALDRICH®, USA) and control sample was treated with phosphate buffered saline (PBS; pH 7.2). The supernatant samples from each condition was collected in eppendorf tubes and subjected to further analysis.
To investigate the effect of PEP-1 on inhibiting proinflammatory cytokine production RAW 264.7 cell were pre-treated with PEP 1 at a concentration of 5 μg/mL challenged with LPS at a concentration of 1 μg/mL, and cells were further incubated for 24 hr. The supernatant samples containing cell culture medium was collected and analyzed for the cytokine levels using ELISA kits (eBioscience, San Diego).
96 wells plates were coated with 100 μL of capture antibodies (diluted in coating buffer to the concentration recommended by manufacturer's protocol) overnight at 4° C. Then, after washing the plates 5 times, 200 μL of assay diluents was added to each well and incubated for 1 hr at room temperature for blocking. […]
Following incubation with the secondary antibody, the plate was washed five times and incubated with 100 μL of avidin-HRP (BD Bioscience) for 30 min at room temperature. […] The reaction was stopped by adding 50 μl of 2N H2SO4 in each well The optical density at 450 nm was measured using a microplate reader. […]

COX-2 = experiment: Western blot of expression level, LPS-stimulated cells; assay type: cell-based; details: LPS 1 μg/ml, PEP 1 5 μg/ml
Protocol: as §1, §2
(§3) Protein expression level was determined by Western blot analysis. Cells grown in PEP-1 containing medium were washed with PBS, treated with 0.05% trypsin-EDTA, and collected by centrifugation. The collected cells were dissolved in an appropriate volume of lysis buffer. Intracellular debris was pelleted by centrifugation, and equal amount of protein from each sample was separated by SDS-polyacrylamide gel electrophoresis. The separated protein was transferred to nitrocellulose membrane (Schleicherand Schuell, Keene, N.H., USA), then was tested for the antibody specific for each protein. The membrane was incubated with ECL (enhanced chemiluminoesence) solution ([…]®), exposed to X-ray, and the level of protein expression was analyzed according to the exposure level shown on the X-ray film.

HMGB1 [1] = experiment: as above; assay type: cell-based; details: LPS 1 μg/ml, PEP 1 5 μg/ml
Protocol: as §1, §2, §3

TNF-α = experiment: as above; assay type: cell-based; details: LPS 1 μg/ml, PEP 1 5 μg/ml
Protocol: as §1, §2, §3

GADD 153 = experiment: 2D-electrophoresis protein expression in neural stem cells; assay type: cell-based, rat; details: 20 ug β-amyloid + PEP 1 treated group, versus negative control 1.0
Protocol: (§4) Protein expression level of PEP-1 treated group and untreated group was analyzed by 2D-electrophoresis technique and antibody microarray technique. Prepared 200 μg by extracting proteome from the neural stem cells cultured in Experiment 3-1 of Example 3. In addition, the group in which PEP-1 was not treated was used as the comparison group in the same condition.
(§5) 2D-electrophoresis was performed using 12% acrylamide gels. First gel electrophoresis was performed at PI 4˜10 N, using a gel size of 8.5×7 cm. After electrophoresis, it was dyed with Colloidal Coomassie Blue, and then compared expression by using PDQuest software to analyze each spot.
(§6) Difference in the expression levels of more than 1.5 times was identified using MALDI-TOF MS (Matrix Desorption/Ionization Time of Flight Mass Spectromestry). Among these, proteins correlated with inflammation-related signaling, such as i-NOS and HMGB-1 were identified (Refer to Table 6). The changes in protein expression levels either increased or decreased by 1.5 times by amyloid-β protein, but it was confirmed that expression level was regulated close to that of negative control when PEP-1 was added (Refer to FIGS. 14A-14B).
(§7) The Table 6 below is an analysis of expression levels of proteins associated with inflammation by 2D electrophoresis technique. The control group represents protein expression level of cells that were not treated with neither amyloid-β protein nor PEP-1.

HMGB1 [2] = experiment: as above; assay type: cell-based, rat; details: 20 ug β-amyloid + PEP 1 treated group, versus negative control 1.0
Protocol: as §4, §5, §6, §7

HSP 70 = experiment: as above; assay type: cell-based, rat; details: 20 ug β-amyloid + PEP 1 treated group, versus negative control 1.0
Protocol: as §4, §5, §6, §7

HSP 90 = experiment: as above; assay type: cell-based, rat; details: 20 ug β-amyloid + PEP 1 treated group, versus negative control 1.0
Protocol: as §4, §5, §6, §7

MAP Kinase = experiment: as above; assay type: cell-based, rat; details: 20 ug β-amyloid + PEP 1 treated group, versus negative control 1.0
Protocol: as §4, §5, §6, §7

Pyk2 = experiment: as above; assay type: cell-based, rat; details: 20 ug β-amyloid + PEP 1 treated group, versus negative control 1.0
Protocol: as §4, §5, §6, §7

e-NOS = experiment: as above; assay type: cell-based, rat; details: 20 ug β-amyloid + PEP 1 treated group, versus negative control 1.0
Protocol: as §4, §5, §6, §7

i-NOS = experiment: as above; assay type: cell-based, rat; details: 20 ug β-amyloid + PEP 1 treated group, versus negative control 1.0
Protocol: as §4, §5, §6, §7

[3] = system: Ki67, pAKT, PI3K, HSTF-1 and Bcl-2; experiment: Western blot of anti-apoptotic proteins in amyloid-β damaged neural stem cells; assay type: cell-based, rat; details: 20 μM amyloid beta, PEP-1 1, 10 and 50 μM, FIGS. 15A-15F
[4] = RAW 264.7 cells, LPS 1 μg/ml, PEP 1 5 μg/ml, 24 hr

## EARPALLTSRLRFIPK [PEP-1]
IL-6; [4]
  cytokine IL-6 production % of control: 28%
  cytokine IL-6 production inhibition %: 72%
IL-6; co-treatment with LPS
  decrease of proinflammatory cytokine secretion (IL-6): more than 70%
COX-2
  COX-2 Cytokine Expression Level (band intensity) % of control: 22%
HMGB1 [1]
  HMGB1 Cytokine Expression Level (band intensity) % of control: 30%
TNF-α
  TNF-α Cytokine Expression Level (band intensity) % of control: 25%
GADD 153
  GADD 153 expression (fold): 1.2 fold
HMGB1 [2]
  HMGB1 expression (fold): 2.8 fold
HSP 70
  HSP 70 expression (fold): 1.2 fold
HSP 90
  HSP 90 expression (fold): 1.0 fold
MAP Kinase
  MAP Kinase expression (fold): 1.0 fold
Pyk2
  Pyk2 expression (fold): 1.2 fold
e-NOS
  e-NOS expression (fold): −1.1 fold
i-NOS
  i-NOS expression (fold): −1.1 fold
[3]
  protein expression levels of anti-apoptotic proteins Ki67, pAKT, PI3K, HSTF-1, Bcl-2: increased the protein expression levels
